# Source: patent US20080069809A1, “Compositions and methods for the diagnosis and treatment of cancer” (priority 2006, published 2008)
# Legend:
# PKC-δ = molecular target: T1, PKC-δ (Homo sapiens, UniProt Q05655); assay: PKC-δ activation by translocation (cell fractionation, Western blotting) in HL60 cells; type: cell-based; conditions: 10 minutes
# T1 construct: endogenous in cells; host or cells: HL60
# Description: PKC translocates from the soluble to the particulate fraction of cells when activated and this method was used to assess activation of PKC-δ by PEP005 and PMA. Briefly, cells were incubated for 10 minutes in medium alone or 20 nM PEP005 or 20 nM PMA, washed twice in phosphate buffered saline (PBS) and then lysed by homogenization in hypotonic lysis buffer in the absence of detergent. Lysis was checked using trypan blue uptake. Nuclei were isolated by centrifugation at 1000 g for 10 minutes. Centrifugation at 100,000 g for 45 minutes at 4° C. was used to isolate the cytosol (supernatant) and cell membrane (pellet) fractions. All were taken up in SDS sample buffer and analyzed for PKC-δ by Western blotting.
# [1] = system: EGFP-positive PKC-δ-expressing KG1a cells; assay: Apoptosis / viability in KG1a cells transfected with EGFP-PKC-δ; type: cell-based
# Description: KG1a cells were transiently transfected with EGFP-tagged mouse PKC-δ subcloned into pEGFP-N1 plasmid (available from National Cancer Institute [NCI], Bethesda, Md.) using an Amaxa nucleofection apparatus (Amaxa, Koeln, Germany). Transfection efficiency was approximately 35% as judged by fluorescence-activated cell sorter (FACS) analysis and cells were treated with PEP005 (0.2 μM-20 μM) 24 hours after transfection. Cell viability in EGFP-positive cells was assessed by analysis of cell morphology (forward scatter and side scatter profile) by FACS and loss of viability confirmed in the total cell culture by MTT assay after 3 days. Briefly, 24 hours after transfection, 2×10^4 cells were plated in five wells in 96-well plates and exposed to […] PEP005. At 72 hours, 20 μL MTT substrate at 5 mg/mL was added and plates were incubated at 37° C. After 3 hours, 150 μL media was removed and replated with 200 μL dimethyl sulfoxide (DMSO). Absorbance at an optical density (OD) of 550 nm was read on a Biotech plate reader (Amersham Pharmacia) and corrected for absorbance obtained from blank media controls.
# EGFP-tagged mouse PKC-δ = EGFP-tagged mouse PKC-δ (Mus musculus, UniProt P28867); conditions: KG1a
# Description: KG1a cells were transfected with PKC-δ-EGFP or pEGFP-N1 (vector control). At 24 hours after transfection, cells were treated with 0, 0.2, 2 and 20 μM PEP005 and cytospins prepared after 15 minutes. Slides were fixed with 2% v/v paraformaldehyde in PBS for 20 minutes, rinsed briefly in PBS and mounted in Vectashield containing DAPI (4.6 diamidino-2-phenylindole; Vector Laboratories, Burlingame, Calif.). Slides were examined using a Leica Fluorescence microscope (Leica, Heidelberg, Germany) fitted with ×60 oil immersion objective. Images were captured using a Hamanatsu C4742-95 camera (Grafter Imaging, Austin, Tex.) and analyzed using OpenLab 3.1 software (Improvision, Coventry, United Kingdom).
# EGFP-tagged mouse PKC-δ, sequence (P28867 whole entry): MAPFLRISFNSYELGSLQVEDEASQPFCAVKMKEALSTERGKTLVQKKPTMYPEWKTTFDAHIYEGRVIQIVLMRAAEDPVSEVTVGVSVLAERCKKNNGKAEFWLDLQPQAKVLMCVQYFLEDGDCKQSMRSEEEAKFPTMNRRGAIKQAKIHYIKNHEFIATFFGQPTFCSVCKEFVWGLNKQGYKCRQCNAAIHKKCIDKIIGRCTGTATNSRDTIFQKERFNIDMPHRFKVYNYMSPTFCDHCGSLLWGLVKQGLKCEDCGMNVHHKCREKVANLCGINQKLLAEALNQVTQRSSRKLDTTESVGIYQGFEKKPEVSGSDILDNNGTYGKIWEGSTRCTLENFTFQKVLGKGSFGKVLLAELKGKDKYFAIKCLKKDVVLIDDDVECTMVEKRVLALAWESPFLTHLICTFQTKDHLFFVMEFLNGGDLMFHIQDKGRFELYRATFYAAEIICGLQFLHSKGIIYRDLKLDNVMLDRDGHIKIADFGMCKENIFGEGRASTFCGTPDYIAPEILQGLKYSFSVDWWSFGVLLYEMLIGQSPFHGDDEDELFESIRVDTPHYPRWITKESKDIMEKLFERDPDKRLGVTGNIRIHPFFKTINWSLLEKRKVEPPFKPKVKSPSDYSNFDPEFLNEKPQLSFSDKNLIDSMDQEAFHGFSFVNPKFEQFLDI
# T1 sequence (Q05655 whole entry): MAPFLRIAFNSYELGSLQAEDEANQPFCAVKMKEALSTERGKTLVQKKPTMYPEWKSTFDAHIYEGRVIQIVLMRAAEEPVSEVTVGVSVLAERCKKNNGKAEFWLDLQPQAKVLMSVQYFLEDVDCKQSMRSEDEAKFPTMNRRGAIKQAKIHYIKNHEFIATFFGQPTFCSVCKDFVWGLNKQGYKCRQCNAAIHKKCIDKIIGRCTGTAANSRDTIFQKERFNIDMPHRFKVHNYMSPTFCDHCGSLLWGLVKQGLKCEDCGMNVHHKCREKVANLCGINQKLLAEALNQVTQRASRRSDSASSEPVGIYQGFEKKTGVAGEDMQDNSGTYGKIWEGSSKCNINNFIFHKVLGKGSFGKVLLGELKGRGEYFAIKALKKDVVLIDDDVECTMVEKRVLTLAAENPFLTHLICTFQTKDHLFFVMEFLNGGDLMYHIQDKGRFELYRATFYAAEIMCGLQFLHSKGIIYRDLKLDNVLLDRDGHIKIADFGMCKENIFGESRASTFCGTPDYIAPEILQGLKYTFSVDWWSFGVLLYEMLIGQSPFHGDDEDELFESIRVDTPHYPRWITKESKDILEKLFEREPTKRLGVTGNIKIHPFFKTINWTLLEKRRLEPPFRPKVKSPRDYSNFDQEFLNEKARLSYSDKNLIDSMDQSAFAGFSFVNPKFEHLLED
smiles,measurement,setting,value
"C/C=C(/C)C(=O)O[C@H]1C(C)=C[C@]23C(=O)[C@@H](C=C(CO)[C@@H](O)[C@]12O)[C@H]1[C@@H](C[C@H]3C)C1(C)C [PEP005, ingenol-3-angelate]",site of initial PKC-δ translocation,PKC-δ; 20 nM PEP005 or 20 nM PMA,to the nuclear and cell membranes
same,activation of PKC-δ (translocation from cytosol to membrane fraction),PKC-δ; 20 nM,induced activation of PKC-δ
same,viability of total cell population by MTT assay,"[1]; PEP005, after 3 days",Loss of viability was confirmed
same,apoptosis (forward and side scatter by FACS),"[1]; PEP005 for 3 days, 24 hours after transfection, doses commensurate with those in HL60, U937 and NB4",resulted in apoptosis
same,time to translocation of EGFP-tagged PKC-δ to the nuclear region,EGFP-tagged mouse PKC-δ; 200 nM PEP005,≤ 5 min
same,translocation of EGFP-PKC-δ,EGFP-tagged mouse PKC-δ; from cytosol after PEP005 treatment,induced its translocation to the nucleus and perinuclear region
